Among the test systems are A549 NSCLC; NCI-H23 lung; MOLT-4 leukemia; SK-OV-3 ovarian; NCI-H522 lung; SF-268 CNS; HOP-92 NSCLC; NCI-H226 lung; EKVX NSCLC; KM12 colon.
Common to all, as to test: inhibition of tumour cell growth, NCI panel, 48 h

Values joined by “and” are separate entries in the source; they are usually repeats but may differ in a detail not shown here. Identical values can stand only once.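 Cultured in 96-well plates, cells were exposed to test compound for 48 hours across five concentrations. GI50: concentration for 50% inhibition of growth. TGI denotes the concentration required for complete inhibition of growth.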 A value given as a limit tells only on which side of the number the result lay.

8 molecules from PubChem BioAssay (NCI) can be followed below.

Regarding `CC(C)(CCN=C(N)Nc1ccccn1)c1ccc(C(F)(F)F)cc1`, the GI50 with A549 NSCLC is 16.5 µM; in the assay on NCI-H23 lung, 12.7 µM; in the assay on MOLT-4 leukemia, 14.5 µM; in the assay with SK-OV-3 ovarian, 15.8 µM; with NCI-H522 lung, 14.5 µM; in the assay with SF-268 CNS, 16.5 µM. In addition, the GI50 is 13.3 µM in the assay on HOP-92 NSCLC, 13.6 µM in the assay with NCI-H226 lung, 11.2 µM in the assay on EKVX NSCLC and 15.8 µM in the assay on KM12 colon. The TGI in the assay on A549 NSCLC worked out at 31.6 µM; in the assay on NCI-H23 lung it was 27.6 µM; with MOLT-4 leukemia it was 37.4 µM; in the assay with SK-OV-3 ovarian it was 30.8 µM; with NCI-H522 lung it was 30.8 µM; with SF-268 CNS it was 35.6 µM. The TGI in the assay with HOP-92 NSCLC was determined as 27.6 µM; in the assay with NCI-H226 lung, 31.7 µM; with EKVX NSCLC, 30.5 µM; in the assay with KM12 colon, 30.9 µM.
Consider `CC(=O)c1ccc(Nc2nc(Nc3ccc(F)cc3)nc(Nc3ccc(F)cc3)n2)cc1`, for which the GI50 with A549 NSCLC was 5.81 µM; with NCI-H23 lung it was 35.7 µM; in the assay with MOLT-4 leukemia, 4.39 µM; with SK-OV-3 ovarian it was 10.5 µM; in the assay on NCI-H522 lung it was 10.4 µM; in the assay with SF-268 CNS, 10.8 µM. Also, the GI50 in the assay on HOP-92 NSCLC was 5.64 µM; with NCI-H226 lung, 20.7 µM; in the assay with EKVX NSCLC, 12.3 µM; in the assay on KM12 colon, 8.67 µM. Further, the TGI with A549 NSCLC is 32.5 µM; with NCI-H23 lung it was more than 100 µM; with MOLT-4 leukemia, more than 100 µM; in the assay with SK-OV-3 ovarian, 83.6 µM; in the assay on NCI-H522 lung, 41.3 µM; in the assay on SF-268 CNS, 46.6 µM. In addition, the TGI was 31.5 µM with HOP-92 NSCLC, more than 100 µM in the assay with NCI-H226 lung, 57.8 µM with EKVX NSCLC and 97.9 µM in the assay with KM12 colon.
On to `Clc1nc(Cl)c2c3c(sc2n1)CCCC3`, for which the GI50 in the assay on A549 NSCLC was more than 24.4 µM; in the assay on NCI-H23 lung, 5.92 µM; in the assay with MOLT-4 leukemia, 3.61 µM; in the assay with SK-OV-3 ovarian, more than 100 µM; in the assay on NCI-H522 lung it was 1.64 µM; in the assay with SF-268 CNS it was 4.37 µM. For the same molecule, the GI50 was 3.88 µM in the assay with HOP-92 NSCLC, 2.54 µM in the assay on NCI-H226 lung, more than 100 µM in the assay on EKVX NSCLC and more than 100 µM in the assay on KM12 colon. For the same molecule, the TGI was more than 100 µM in the assay with A549 NSCLC; more than 100 µM with NCI-H23 lung; more than 100 µM in the assay with MOLT-4 leukemia; more than 100 µM in the assay on SK-OV-3 ovarian; more than 26 µM in the assay with NCI-H522 lung; more than 100 µM in the assay with SF-268 CNS. Besides, the TGI with HOP-92 NSCLC was more than 100 µM; with NCI-H226 lung, more than 28.8 µM; in the assay with EKVX NSCLC, more than 100 µM; in the assay on KM12 colon it was more than 100 µM.
In the case of `C=C1COC(O)(C2OCOC(C3CC(=O)NC(=O)C3)C2O)C1C` (stereo not given), the GI50 with A549 NSCLC is 0.00282 µM; in the assay with NCI-H23 lung, 0.00267 µM; in the assay with MOLT-4 leukemia, 0.00124 µM; in the assay with SK-OV-3 ovarian, 0.00429 µM; in the assay on NCI-H522 lung, 0.00201 µM; in the assay with SF-268 CNS it was 0.00577 µM. Further, the GI50 in the assay with HOP-92 NSCLC was 0.00585 µM and 0.0117 µM; in the assay on NCI-H226 lung it was 0.00356 µM; with EKVX NSCLC, 0.00507 µM; with KM12 colon it was 0.00176 µM. The TGI was 0.0303 µM and 0.0326 µM with A549 NSCLC; 0.0144 µM and 0.0338 µM with NCI-H23 lung; 0.00804 µM and 0.00522 µM in the assay on MOLT-4 leukemia; 0.052 µM in the assay with SK-OV-3 ovarian; 0.00684 µM and 0.00593 µM and 0.0137 µM with NCI-H522 lung; 0.0423 µM and 0.033 µM in the assay with SF-268 CNS. The TGI is 0.0354 µM and 0.045 µM with HOP-92 NSCLC; 0.019 µM and 0.0216 µM in the assay on NCI-H226 lung; 0.04 µM and 0.266 µM in the assay with EKVX NSCLC; 0.0212 µM in the assay on KM12 colon.
Take `N#Cc1ccsc1NC(=O)COC(=O)c1cccc(S(=O)(=O)N2CCc3ccccc32)c1`: the GI50 was 45.2 µM in the assay on A549 NSCLC; 38.9 µM in the assay on NCI-H23 lung; 6.68 µM in the assay on MOLT-4 leukemia; more than 100 µM with SK-OV-3 ovarian; 34.8 µM in the assay on NCI-H522 lung; 13.4 µM in the assay with SF-268 CNS. For the same molecule, the GI50 with HOP-92 NSCLC was 40.1 µM; in the assay with NCI-H226 lung, more than 100 µM; with EKVX NSCLC, 68.3 µM; with KM12 colon it was 38.6 µM. Further, the TGI with A549 NSCLC, in the assay with NCI-H23 lung, with MOLT-4 leukemia, in the assay on SK-OV-3 ovarian, in the assay with NCI-H522 lung and with SF-268 CNS was more than 100 µM each time. Moreover, the TGI in the assay on HOP-92 NSCLC, in the assay with NCI-H226 lung, in the assay on EKVX NSCLC and with KM12 colon was more than 100 µM in each case.
As to `CCCCCCCCCCCCCCCC(=O)N[C@H](/C=C/[C@H](O)CCCCCCCCCCCCC)CO`, the GI50 in the assay with A549 NSCLC, with NCI-H23 lung, in the assay on MOLT-4 leukemia, in the assay on SK-OV-3 ovarian, in the assay with NCI-H522 lung and with SF-268 CNS was more than 100 µM throughout. Further, the GI50 with HOP-92 NSCLC, in the assay with NCI-H226 lung, in the assay on EKVX NSCLC and in the assay with KM12 colon was more than 100 µM each time. For the same molecule, the TGI with A549 NSCLC, in the assay with NCI-H23 lung, in the assay with MOLT-4 leukemia, in the assay with SK-OV-3 ovarian, in the assay with NCI-H522 lung and with SF-268 CNS was more than 100 µM throughout. For the same molecule, the TGI in the assay on HOP-92 NSCLC, in the assay on NCI-H226 lung, with EKVX NSCLC and with KM12 colon was more than 100 µM each time.
`O=C1C=CC(=Nc2ccccc2)c2ccccc21`: the TGI with A549 NSCLC amounted to 31 µM; in the assay on NCI-H23 lung, 13.1 µM; with MOLT-4 leukemia, 36.2 µM; in the assay on SK-OV-3 ovarian, 80.5 µM; in the assay on NCI-H522 lung, 23.3 µM; with SF-268 CNS, 24.8 µM. The TGI is 28.4 µM in the assay on HOP-92 NSCLC, 28.8 µM in the assay on NCI-H226 lung, 12.9 µM in the assay on EKVX NSCLC and 25.6 µM in the assay with KM12 colon.
As to `O=C(N/C(=C\c1ccc(/C=C(\NC(=O)c2ccccc2)c2nc3cc(Cl)ccc3[nH]2)cc1)c1nc2cc(Cl)ccc2[nH]1)c1ccccc1`, the TGI in the assay with A549 NSCLC is more than 100 µM; in the assay with NCI-H23 lung it was more than 100 µM; in the assay with MOLT-4 leukemia, 39.8 µM; in the assay with SK-OV-3 ovarian, more than 100 µM; in the assay with NCI-H522 lung, 53.8 µM; with SF-268 CNS, 73.5 µM. In addition, the TGI in the assay on HOP-92 NSCLC is more than 100 µM; in the assay on NCI-H226 lung, more than 100 µM; with EKVX NSCLC, 91.9 µM; in the assay on KM12 colon, 88.7 µM.
